Measured values reported in US9670155B2, “Pyrrolidine derivatives as oxytocin/vasopressin V1a receptors antagonists” (ObsEva S.A., priority 2013, dated 2017).

Experiments:
[1] = system: spontaneous uterine contractions; assay: Inhibition of spontaneous uterine contractions in anesthetized late-term pregnant rat; assay type: in vivo; settings: oral route, 10, 30 or 60 mg/kg
Description: Late-term pregnant (certified at days 19-21 of pregnancy) Sprague Dawley CD (SD) BR female rats (Charles River, Calco, Italy), weighing 350-400 g were anesthetized with urethane (1.05 g/kg, i.p.) and placed on a homeothermic operating table. A midline incision at the hypogastrium level was made, one pregnant uterine horn exposed and its tubal end (near the ovary) was closed by a ligature with surgical silk. Corresponding to the fetus close to the ovary, the uterine-horn wall was incised taking care not to injure the adjacent placenta and PE240 tubing with a latex balloon (9 mm length when empty, capacity 0.1 mL; Radnoti, Monrovia, Calif., USA) on the top was inserted into the lumen and secured to the uterine wall with surgical silk. After filling the internal cavity of the latex balloon with 0.1 mL of sterile physiological saline solution, the catheter was connected to an amplifying/recording system (MacLab, ADInstruments Pty Ltd, Castle Hill, Australia) via a P231D Gould-Statham pressure transducer. […] After the surgical preparation, a 30-min stabilization period was observed and then the effects of increasing doses of compounds of the present invention (given as 10-min i.v. infusion, bolus i.v. or p.o.) were evaluated by measuring the resulting uterine contractions. For the i.v. administration (infusion or bolus) the uterine contractile activity was quantified by calculating the AUC during the 10-min injection period. The percent variation of the AUC values relative to the spontaneous uterine response observed after each compound administration was calculated in comparison to the value recorded before the first dose-administration (basal value). The effect of test compounds of the present invention was evaluated by comparing pre- and post-treatment luminal uterine pressure values. […] Statistical differences between treatment groups at each time-point were determined by using one-way ANOVA followed by Tukey test. […] Contractions were continuously recorded and area-under-the-curve (AUC) integrated over 10-min time intervals.

[2] = Isomeric interconversion in oral and intravenous dose formulations (HPLC); assay type: physicochemical; settings: oral (Labrasol:water 1:1) and intravenous (NP3S) dose formulations, pre- and post-dose
[3] = Qualitative solubility/crystallisation tests on 15 mg scale; assay type: physicochemical
[4] = nominal 30 mg/kg
Protocol: The animals used in this study were Sprague-Dawley, Crl: CD®BR albino rats. All animals were supplied by Charles River UK Ltd (Margate, Kent, UK). Animals were in the weight range 200-260 g and were approximately 2 months old. Rats were given a unique identity number and were identified by unique tail markings plus cage location.
The dose groups were as follows: 4 female were given an oral dose and 4 female were given an intravenous dose.
Dose formulations were prepared in an appropriate matrix; intravenous doses were prepared in NP3S, whilst oral doses were prepared in Labrasol:water (1:1 v/v).

CO/N=C1/C[C@@H](CO)N(C(=O)c2ccc(-c3ccccc3C)cc2)C1 [(3Z,5S)-5-(hydroxymethyl)-1-[(2′-methyl-1,1′-biphenyl-4-yl)carbonyl]pyrrolidin-3-one O-methyloxime]
Uterine contractions inhibition ([1]; 5 to 15 min after administration): 15%
Uterine contractions inhibition ([1]; 170-180 minutes after administration): 42%
interconversion to E-isomer during dose preparation or administration [2]: no detectable interconversion
Dissolves in: ([3]; solvent DIPE, hot): 40 vol
Dissolves in: ([3]; solvent IPA, hot): 4 vol
Dissolves in: ([3]; solvent MIBK, hot): 4 vol
Dissolves in: ([3]; solvent THF, cold): 4 vol
Dissolves in: ([3]; solvent heptanes): insoluble in 20 vol
Dissolves in: ([3]; solvent tBuOH, hot): 6 vol
Dissolves in: ([3]; solvent toluene, cold): 2 vol

CO/N=C1/C[C@@H](CO)N(C(=O)c2ccc(-c3ccccc3C)cc2)C1 [[^14C]-(3Z,5S)-5-(hydroxymethyl)-1-[(2′-methyl-1,1′-biphenyl-4-yl)carbonyl]pyrrolidin-3-one O-methyloxime]
isomeric interconversion in vivo ([4]; female rats, oral or intravenous dose): no detectable isomeric interconversion
presence of [14C]-E-isomer in plasma ([4]; rat plasma up to 6 hours after oral or intravenous administration): no evidence

CO/N=C1\C[C@@H](CO)N(C(=O)c2ccc(-c3ccccc3C)cc2)C1 [(3E,5S)-5-(hydroxymethyl)-1-[(2′-methyl-1,1′-biphenyl-4-yl)carbonyl]pyrrolidin-3-one O-methyloxime, reference compound]
inhibition of uterine contraction (in words) ([1]; any time during the 170-180 minutes observation): no inhibition of uterine contraction
